In PubChem BioAssay (NCI):
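Where inhibition never reached the appropriate level, the endpoint shown equals the highest concentration tested. Otherwise, values were interpolated linearly from a five-concentration, 48-hour dose response in 96-well plates. The concentration for 50% growth inhibition is given as GI50. Definition used: TGI = concentration required for complete inhibition of growth.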

Experiments:
Experiment in all cases: DTP human tumour cell line panel, 48 h
UACC-257 melanoma = tested on: UACC-257 melanoma
SK-OV-3 ovarian = tested on: SK-OV-3 ovarian
ACHN renal = tested on: ACHN renal
SW-620 colon = tested on: SW-620 colon
K-562 leukemia = tested on: K-562 leukemia
TK-10 renal = tested on: TK-10 renal
A498 renal = tested on: A498 renal
EKVX NSCLC = tested on: EKVX NSCLC
OVCAR-5 ovarian = tested on: OVCAR-5 ovarian
NCI-H460 lung = tested on: NCI-H460 lung

| SMILES | GI50 (UACC-257 melanoma) | TGI (UACC-257 melanoma) | GI50 (SK-OV-3 ovarian) | TGI (SK-OV-3 ovarian) | GI50 (ACHN renal) | TGI (ACHN renal) | GI50 (SW-620 colon) | TGI (SW-620 colon) | GI50 (K-562 leukemia) | TGI (K-562 leukemia) | GI50 (TK-10 renal) | TGI (TK-10 renal) | GI50 (A498 renal) | TGI (A498 renal) | GI50 (EKVX NSCLC) | TGI (EKVX NSCLC) | GI50 (OVCAR-5 ovarian) | TGI (OVCAR-5 ovarian) | TGI (NCI-H460 lung) [µM] | GI50 (NCI-H460 lung) [µM] |
| --- | --- | --- | --- | --- | --- | --- | --- | --- | --- | --- | --- | --- | --- | --- | --- | --- | --- | --- | --- | --- |
| N#[N+]c1ccc(Nc2ccccc2)cc1 | > 50 µg/mL | > 50 µg/mL | > 50 µg/mL | > 50 µg/mL | > 50 µg/mL | > 50 µg/mL | > 50 µg/mL | > 50 µg/mL | > 50 µg/mL | > 50 µg/mL | > 50 µg/mL | > 50 µg/mL | > 50 µg/mL | > 50 µg/mL | > 50 µg/mL | > 50 µg/mL | > 50 µg/mL | > 50 µg/mL | – | – |
| Cc1ccc(S(=O)C(C)C(Cl)c2ccccc2)cc1 (centres undefined) | – | > 100 µM | – | > 100 µM | – | > 100 µM | – | > 100 µM | – | > 100 µM | – | > 100 µM | – | > 100 µM | – | – | – | > 100 µM | > 100 | – |
| Cn1cnnc1[S-].[Au+].c1ccc([PH+](c2ccccc2)c2ccccc2)cc1 | 1.35 µM | 2.94 µM | – | – | 1.77 µM | 3.16 µM | – | – | – | – | 1.72 µM | 3.2 µM | – | – | – | – | 1.88 µM | 3.49 µM | – | – |
| COc1ccc(-c2cc(/C=C/C(=O)c3ccc(N)cc3)[nH]n2)cc1 | 1.9 µM | 4.21 µM | 4.72 µM | 18 µM | 2.01 µM | 10.6 µM | 1.69 µM | 5.41 µM | 1.42 µM | 11.6 µM | 2.81 µM | 13 µM | 2.03 µM | 4.95 µM | – | – | 2.06 µM | 4.92 µM | 4.95 | 2.07 |
| O=C1CCC(=O)N1Sc1ccccc1 | – | > 100 µM | – | > 100 µM | – | > 100 µM | – | > 100 µM | – | > 100 µM | – | > 100 µM | – | > 100 µM | – | > 100 µM | – | – | > 100 | – |
| CC(C)OP(=O)(O)c1ncc(-c2ccc(C(F)(F)F)cc2)c(NC2CCCCCC2)n1 | > 100 µM | > 100 µM | > 100 µM | > 100 µM | > 100 µM | > 100 µM | > 100 µM | > 100 µM | 55 µM | > 100 µM | > 100 µM | > 100 µM | > 100 µM | > 100 µM | – | – | > 100 µM | > 100 µM | > 100 | > 100 |
| CCOC(=O)c1c(NC(=O)c2ccc(Cl)cc2)sc2c(CN(C)C)c(O)ccc12 | – | – | 10.9 µM | 33.3 µM | 4.28 µM | 18.3 µM | 2.4 µM | 7.33 µM | 1.62 µM | 5.07 µM | 14.5 µM | 34.5 µM | 6.09 µM | 19.9 µM | 10.1 µM | 31.8 µM | 9.1 µM | 57.2 µM | > 100 | 4.71 |
| CC(O)[C@H](NC(=O)N[C@@H](CC(N)=O)c1nc(N2CCNCC2)no1)C(=O)O (some centres undefined) | > 100 µM | > 100 µM | > 100 µM | > 100 µM | > 100 µM | > 100 µM | > 100 µM | > 100 µM | > 100 µM | > 100 µM | > 100 µM | > 100 µM | – | – | > 100 µM | > 100 µM | > 100 µM | > 100 µM | > 100 | > 100 |
| COc1ccc(-c2c(N)noc2-c2cc(OC)c3c(c2)OCCO3)cc1 | – | – | < 0.0121 µM | 1.01 µM | 0.131 µM | > 100 µM | < 0.01 µM | > 100 µM | < 0.01 µM | > 100 µM | 0.562 µM | > 56.6 µM | < 0.01 µM | 0.303 µM | 0.046 µM | > 100 µM | 0.0542 µM | > 100 µM | 11.9 | < 0.01 |
| O=[N+]([O-])/C=C/c1ccc(Cl)cc1[N+](=O)[O-] | 11.9 µM | 24.9 µM | 12.1 µM | 24.5 µM | 1.95 µM | 3.79 µM | – | – | 3.08 µM | 24.1 µM | 1.78 µM | 3.48 µM | 14.5 µM | 27.8 µM | 13.1 µM | 35.1 µM | 4.49 µM | 14.9 µM | 33.5 | 3.42 |
| CC(=O)Oc1cc2cnc3c4cc(OC(C)=O)c(OC(C)=O)cc4ccc3c2cc1OC(C)=O | 2.56 µM | > 100 µM | 4.32 µM | > 100 µM | 1.19 µM | > 100 µM | 0.952 µM | > 100 µM | 2.08 µM | > 100 µM | 2.78 µM | > 100 µM | 0.443 µM | 1.84 µM | – | – | 3.93 µM | > 100 µM | > 100 | 0.569 |
| CS(=O)(=O)Nc1cc(-c2ccc3ncnc(Nc4cccc(Cl)c4)c3c2)cnc1Cl | – | – | 0.262 µM | 1.58 µM | 0.474 µM | 46.6 µM | 0.48 µM | 4.87 µM | 1.36 µM | 59.8 µM | – | – | – | – | 0.416 µM | 3.59 µM | 0.223 µM | 13.5 µM | 11.1 | 0.642 |
| COc1ccc(C2=Nn3c(nnc3-n3nc(C)cc3C)SC2)cc1 | – | – | 0.0908 µM | > 100 µM | 0.0781 µM | > 100 µM | 0.0423 µM | > 100 µM | 0.0351 µM | > 100 µM | 0.227 µM | > 100 µM | 0.0303 µM | 0.207 µM | – | – | 0.34 µM | > 100 µM | > 100 | 0.0518 |
| Nc1ccccc1C#Cc1ccccc1C#Cc1cccs1 | 18.1 µM | 53.2 µM | 32.7 µM | > 100 µM | 18.7 µM | 39.4 µM | 18 µM | 41.1 µM | 15.5 µM | 40.7 µM | – | – | 15.1 µM | 29.5 µM | 18 µM | 48.5 µM | 14.5 µM | 30 µM | > 100 | 37.3 |
| COc1cc2c3c(n(CCCNCCCNCCCN)c(=O)c2cc1OC)-c1cc2c(cc1C3=O)OCO2 | > 100 µM | > 100 µM | > 100 µM | > 100 µM | 91.6 µM | > 100 µM | 82.5 µM | > 100 µM | – | – | > 100 µM | > 100 µM | > 100 µM | > 100 µM | > 100 µM | > 100 µM | – | – | > 100 | > 100 |
